A short description of data set [1]: Induction of […] generation in pluronic solution irradiated with 369 nanometer LED light at 6 mW by HPF fluorescence method.
Data set [2] deals with Enterococcus faecalis. In words: Photodynamic antibacterial activity against Enterococcus faecalis 29212 assessed as bacterial eradication at 7 uM preincubated for 30 mins in dark condition followed by 72 J/cm2 LED light irradiation. The data set is classed as functional.
Data set [3] can be described thus: Induction of singlet oxygen generation in toluene solution assessed as singlet oxygen quantum yield irradiated with 369 nanometer LED light at 300 mW by spectrometric method. The data set is classed as functional.
The nature of data set [4]: Induction of singlet oxygen generation in pluronic solution in deuterated water assessed as singlet oxygen quantum yield irradiated with 635 nanometer LED light at 300 mW by spectrometric method. The data set is classed as functional.
A short description of data set [5]: Induction of hydroxy radical generation in pluronic solution irradiated with 635 nanometer LED light at 6 mW by HPF fluorescence method.
For data set [6], the system named is Enterococcus faecalis. The experiment in a line: Photodynamic antibacterial activity against Enterococcus faecalis 29212 assessed as bacterial eradication by measuring log reduction at 7 uM preincubated for 30 mins in dark condition followed by 0.6 J/cm2.min LED light irradiation for 120 mins. The data set is classed as functional, ATCC 29212.
Data set [7] can be described thus: Absorption property in pluronic/PBS solution assessed as diode array corresponding wavelength of photodynamic inactivation by measuring electronic absorption spectra by spectrophotometry. The data set is classed as physicochemical. The settings on record: buffer.
In data set [8] the test system is Enterococcus faecalis. In words: Photodynamic antibacterial activity against Enterococcus faecalis 29212 assessed as bacterial eradication at 7 uM preincubated for 30 mins in dark condition followed by 0.6 J/cm2.min LED light irradiation for 50 mins. The data set is classed as functional, ATCC 29212. The note with it: time 80 min, 1.333 h.
Data set [9] has as its system Enterococcus faecalis. The experiment in a line: Photodynamic antibacterial activity against Enterococcus faecalis 29212 assessed as bacterial eradication at 7 uM preincubated for 30 mins in dark condition followed by 30 J/cm2 LED light irradiation. The data set is classed as functional, ATCC 29212. The settings on record: 0.5 h.
The test system of another data set is HeLa. The experiment in a line: Photodynamic anticancer activity against human HeLa cells. The data set is classed as functional, cell-based.

The source made the active and inactive calls. No cut-off for these calls is given here.

As to `CC(C)(C)c1cc2[nH]c1ccc1nc(c3ccc(ccc4nc2C=C4)[nH]3)C=C1`, the result in data set [1] and in data set [5] was Active. Moreover, in the data set with Enterococcus faecalis [2] (ATCC 29212), the result was inactive. The Activity is 0.32 in data set [3]; 0.23 in data set [4]; 3 in the data set with Enterococcus faecalis [6] (time 150 min, 2.5 h); “Active” in data set [7].

As to `C1=Cc2nc1ccc1ccc([nH]1)c1nc(ccc3ccc2[nH]3)C=C1`, the Activity with Enterococcus faecalis [8] was 100%; in data set [3], 0.3; in data set [4], 0.28; in [7] it was “Active”; with Enterococcus faecalis [9], 100%. Moreover, the result (in data set [1]; in [5]; with HeLa) was Active.

In the case of `CC(C)(C)C1=Cc2nc1ccc1[nH]c(cc1C(C)(C)C)c1nc(ccc3[nH]c2cc3C(C)(C)C)C(C(C)(C)C)=C1`, the outcome in data set [1] and in data set [5] was Active. Moreover, the Activity entry is “inactive” in the data set on Enterococcus faecalis [2] (ATCC 29212); “inactive” in the data set with Enterococcus faecalis [6] (ATCC 29212, time 150.0 min); “inactive” in the data set on HeLa. Further, the Activity in data set [3] was 0.38; in [4], 0.21; in data set [7], “Active”.

On to `CC(C)(C)C1=Cc2nc1ccc1ccc([nH]1)c1nc(ccc3[nH]c2cc3C(C)(C)C)C=C1`, for which the outcome in [1] and in data set [5] was Active. Further, the Activity entry in the data set on Enterococcus faecalis [2] (ATCC 29212) is “inactive”; in the data set on Enterococcus faecalis [6] (ATCC 29212, time 150.0 min) it was “inactive”. Moreover, the Activity in data set [3] was 0.36; in data set [4] it was 0.22; in data set [7] it was “Active”.

On to `COCCC1=Cc2nc1ccc1[nH]c(cc1CCOC)c1nc(ccc3[nH]c2cc3CCOC)C(CCOC)=C1`, for which the result (in data set [1]; in data set [5]; in the data set on HeLa) was Active. The Activity was 100% in the data set with Enterococcus faecalis [2] (0.5 h); 0.32 in data set [3]; 0.23 in [4]; 6 with Enterococcus faecalis [6] (time 150 min, 2.5 h); “Active” in data set [7].

Values taken from ChEMBL document CHEMBL4765351, “Photoeradication of bacteria with porphycenes: Substituent effects on the efficiency” (Eur J Med Chem, 2020).
